Measured values taken from patent publication US4923975A, “Valiolamine derivatives and production thereof” (Takeda Chemical Industries, Ltd., priority 1985, dated 1990).

Legend:
α-glucosidase [1] = details: in words; valiolamine and N-substituted valiolamine derivatives (European Patent Publication No. 56194 and 89812); cited from earlier work
[2] = target: T1, sucrase from porcine small intestine (Sus scrofa, UniProt P56729); assay: inhibition of sucrase from porcine small intestine (substrate 50 mM sucrose); assay type: biochemical; details: read-out: IC50 (molarity required for 50% inhibition of the enzymatic activity) against sucrase
T1 construct: sucrase from porcine small intestine; from tissue; host or cells: porcine small intestine

Rhizoctonia solanii = assay: minimum concentration causing the abnormal branching at the tops of hypha of Rhizoctonia solanii; assay type: cell-based; details: method: J. Antibiotics 24,114-118 (1971)
Procedure: For example, the minimum concentration causing the abnormal branching at the tops of hypha of Rhizoctonia solanii [See J. Antibiotics 24,114-118 (1971)}was 0.5 μg/mL for VM-G and 2.5 μg/mL for VA-G.

Solubility in solvents = assay type: physicochemical; details: for solubility in water: in words, for isolation and purification
[3] = test system: sheath blight of the rice plant; assay: activity against the sheath blight of the rice plant (stated in words); details: VA-G and VM-G
α-glucosidase [4] = assay: α-glucosidase-inhibiting activity (stated in words); assay type: biochemical; details: VA-G and VM-G
[5] = in ethanol, ethyl acetate, chloroform, and acetone
[6] = in water, dimethylsulfoxide, and methanol

T1 sequence (P56729 with tags, fused parts or gaps limits assumed): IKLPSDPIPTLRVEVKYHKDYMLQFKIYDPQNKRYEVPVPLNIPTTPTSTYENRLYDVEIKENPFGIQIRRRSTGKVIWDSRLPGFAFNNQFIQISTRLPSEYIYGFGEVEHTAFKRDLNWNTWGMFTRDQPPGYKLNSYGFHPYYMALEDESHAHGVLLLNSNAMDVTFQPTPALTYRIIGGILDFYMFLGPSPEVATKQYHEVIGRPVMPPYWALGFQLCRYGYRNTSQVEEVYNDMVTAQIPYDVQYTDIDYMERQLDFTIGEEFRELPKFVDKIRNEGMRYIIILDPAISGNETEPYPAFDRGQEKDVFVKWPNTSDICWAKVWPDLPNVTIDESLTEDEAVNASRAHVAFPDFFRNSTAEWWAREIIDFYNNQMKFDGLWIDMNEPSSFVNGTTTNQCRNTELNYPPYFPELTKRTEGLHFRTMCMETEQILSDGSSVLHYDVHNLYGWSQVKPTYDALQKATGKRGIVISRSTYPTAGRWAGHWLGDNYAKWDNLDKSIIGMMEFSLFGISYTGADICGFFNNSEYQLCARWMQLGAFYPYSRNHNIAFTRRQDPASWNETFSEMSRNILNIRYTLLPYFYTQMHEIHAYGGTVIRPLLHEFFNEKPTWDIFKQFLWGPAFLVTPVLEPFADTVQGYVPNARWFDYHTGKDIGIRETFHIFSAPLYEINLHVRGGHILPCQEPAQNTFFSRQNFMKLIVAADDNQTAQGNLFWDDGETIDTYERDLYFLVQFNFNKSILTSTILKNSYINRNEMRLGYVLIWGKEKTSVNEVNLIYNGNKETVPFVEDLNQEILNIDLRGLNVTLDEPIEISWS
T1 sequence (P56729 with tags, fused parts or gaps partner limits assumed): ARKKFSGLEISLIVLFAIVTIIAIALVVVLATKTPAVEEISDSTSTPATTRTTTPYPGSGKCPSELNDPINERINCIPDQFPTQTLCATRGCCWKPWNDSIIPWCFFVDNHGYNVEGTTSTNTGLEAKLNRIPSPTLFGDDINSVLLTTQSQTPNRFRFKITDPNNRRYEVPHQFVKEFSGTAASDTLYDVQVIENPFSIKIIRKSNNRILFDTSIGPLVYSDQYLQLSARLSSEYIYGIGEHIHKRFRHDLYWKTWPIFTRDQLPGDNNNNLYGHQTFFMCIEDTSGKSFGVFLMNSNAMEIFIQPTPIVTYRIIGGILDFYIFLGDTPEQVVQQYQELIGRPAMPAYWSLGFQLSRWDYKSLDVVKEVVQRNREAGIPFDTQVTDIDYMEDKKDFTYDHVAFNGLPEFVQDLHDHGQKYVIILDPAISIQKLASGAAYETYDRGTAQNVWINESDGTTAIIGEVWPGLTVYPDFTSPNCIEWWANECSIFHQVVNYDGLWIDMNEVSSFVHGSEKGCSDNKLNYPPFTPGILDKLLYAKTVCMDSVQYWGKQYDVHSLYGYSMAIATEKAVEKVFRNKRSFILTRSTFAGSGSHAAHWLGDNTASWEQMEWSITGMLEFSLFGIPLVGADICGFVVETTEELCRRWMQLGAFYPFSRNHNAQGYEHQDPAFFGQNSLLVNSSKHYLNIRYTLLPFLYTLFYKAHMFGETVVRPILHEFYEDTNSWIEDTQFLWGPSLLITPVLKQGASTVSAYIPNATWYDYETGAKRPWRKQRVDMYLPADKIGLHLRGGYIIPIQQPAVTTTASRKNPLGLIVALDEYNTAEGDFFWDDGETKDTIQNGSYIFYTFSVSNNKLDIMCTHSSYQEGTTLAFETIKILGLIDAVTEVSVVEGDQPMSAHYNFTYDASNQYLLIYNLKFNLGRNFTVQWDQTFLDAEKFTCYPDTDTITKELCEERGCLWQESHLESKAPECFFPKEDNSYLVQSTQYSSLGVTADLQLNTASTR

| Compound | α-glucosidase-inhibitory action (α-glucosidase [1]) | other results |
| --- | --- | --- |
| N[C@H]1C[C@](O)(CO)[C@@H](O)[C@H](O)[C@H]1O [Valiolamine, valiolamine] | potent α-glucosidase-inhibitor | – |
| C[C@H]1C[C@@H](O)[C@H](O)[C@@H](O)[C@@H]1N[C@H]1C[C@](O)(CO)[C@@H](O)[C@H](O)[C@H]1O [(26), N-[(1R,2S)-(2,4,6/3)-2,3,4-trihydroxy-6-methylcyclohexyl]valiolamine] | potent α-glucosidase-inhibitory action | – |
| OC[C@@]1(O)C[C@H](NC2CCCC2O)[C@H](O)[C@@H](O)[C@@H]1O (stereo partly shown) [(19), N-(2-hydroxycyclopentyl)valiolamine] | potent α-glucosidase-inhibitory action | – |
| OC[C@H](N[C@H]1C[C@](O)(CO)[C@@H](O)[C@H](O)[C@H]1O)c1ccccc1 [(15), N-[(R)-o-(hydroxymethyl)benzyl]valiolamine] | potent α-glucosidase-inhibitory action | – |
| OC[C@@]1(O)C[C@H](NCCc2ccccc2)[C@H](O)[C@@H](O)[C@@H]1O [(1), N-phenethylvaliolamine] | potent α-glucosidase-inhibitory action | – |
| C[C@H]1O[C@H](O[C@H]2[C@H](O)[C@@H](O)C(O)O[C@@H]2CO)[C@H](O)[C@@H](O)[C@@H]1N[C@H]1C[C@](O)(CO)[C@@H](O)[C@H](O)[C@H]1O (stereo partly drawn) [(27), 4-O-α-[4-[[(1S)-(1,2,4,5(OH)/3,5)-2,3,4,5-tetrahydroxy-5-(hydroxymethyl)cyclohexyl]amino]-4,6-dideoxy-D-glucopyranosyl]-D-glucopyranose] | potent α-glucosidase-inhibitory action | – |
| OCC1=C[C@H](N[C@H]2C[C@](O)(CO)[C@@H](O)[C@H](O)[C@H]2O)[C@H](O)[C@@H](O)[C@@H]1O [VA-G, validoxylamine G] | – | IC50 [2]: 8.8 µM; minimal effective concentration (Rhizoctonia solanii): 2.5 µg/mL; Solubility in solvents (Solubility in solvents; [5]): Slightly soluble or insoluble; Solubility in solvents (Solubility in solvents; [6]): Soluble; solubility in water (Solubility in solvents): water-soluble basic substances; activity against the sheath blight of the rice plant [3]: an activity against the sheath blight of the rice plant; α-glucosidase-inhibiting activity (α-glucosidase [4]): α-glucosidase-inhibiting activity |
| C[C@H]1C[C@H](N)[C@H](O)[C@@H](O)[C@@H]1N[C@H]1C[C@](O)(CO)[C@@H](O)[C@H](O)[C@H]1O [(24), N-[(1R,2S)-(2,6/3,4)-4-amino-2,3-dihydroxy-6-methylcyclohexyl]valiolamine] | potent α-glucosidase-inhibitory action | – |
| CC(C)(C)c1cc(CN[C@H]2C[C@](O)(CO)[C@@H](O)[C@H](O)[C@H]2O)cc(C(C)(C)C)c1O [(10), N-(3,5-di-tert-butyl-4-hydroxybenzyl)valiolamine] | potent α-glucosidase-inhibitory action | – |
| C[C@H]1C[C@H](O)[C@H](O)[C@@H](O)[C@@H]1N[C@H]1C[C@](O)(CO)[C@@H](O)[C@H](O)[C@H]1O [(25), N-[(1R,2S)-(2,6/3,4)-2,3,4-trihydroxy-6-methylcyclohexyl]valiolamine] | potent α-glucosidase-inhibitory action | – |
| OC[C@@]1(O)C[C@H](NCc2cccnc2)[C@H](O)[C@@H](O)[C@@H]1O [(5), N-(3-pyridylmethyl)valiolamine] | potent α-glucosidase-inhibitory action | – |
| OCC1=C[C@H](N[C@H]2C[C@](O)(CO)[C@@H](O[C@@H]3O[C@H](CO)[C@@H](O)[C@H](O)[C@H]3O)[C@H](O)[C@H]2O)[C@H](O)[C@@H](O)[C@@H]1O [VM-G, validamycin G] | – | IC50 [2]: 110 µM; minimal effective concentration (Rhizoctonia solanii): 0.5 µg/mL; Solubility in solvents (Solubility in solvents; [5]): Slightly soluble or insoluble; Solubility in solvents (Solubility in solvents; [6]): Soluble; solubility in water (Solubility in solvents): water-soluble basic substances; activity against the sheath blight of the rice plant [3]: an activity against the sheath blight of the rice plant; α-glucosidase-inhibiting activity (α-glucosidase [4]): α-glucosidase-inhibiting activity |
| OC[C@@]1(O)C[C@H](NCc2ccco2)[C@H](O)[C@@H](O)[C@@H]1O [(3), N-furfurylvaliolamine] | potent α-glucosidase-inhibitory action | – |
| OC[C@@]1(O)C[C@H](N[C@@H]2CCCC[C@H]2O)[C@H](O)[C@@H](O)[C@@H]1O [(18), N-[(1R,2R)-2-hydroxycyclohexyl]valiolamine] | potent α-glucosidase-inhibitory action | – |
| C[C@H]1O[C@H](O[C@H]2[C@H](O)[C@@H](O)[C@@H]3OC[C@H]2O3)[C@H](O)[C@@H](O)[C@@H]1N[C@H]1C[C@](O)(CO)[C@@H](O)[C@H](O)[C@H]1O [(28)] | potent α-glucosidase-inhibitory action | – |
| OC[C@@]1(O)C[C@H](NC[C@H](O)c2ccccc2)[C@H](O)[C@@H](O)[C@@H]1O [(7), N-[(R)-β-hydroxyphenethyl]valiolamine] | potent α-glucosidase-inhibitory action | – |

| Compound | α-glucosidase-inhibitory action (α-glucosidase [1]) | other results |
| --- | --- | --- |
| OC[C@H]1C[C@@H](N[C@H]2C[C@](O)(CO)[C@@H](O)[C@H](O)[C@H]2O)[C@H](O)[C@@H](O)[C@@H]1O [(23), N-[(1R,2S)-(2,4/3,5)-2,3,4-trihydroxy-5-(hydroxymethyl)cyclohexyl]valiolamine] | potent α-glucosidase-inhibitory action | – |
| OC[C@@]1(O)C[C@H](NC2CCCCC2O)[C@H](O)[C@@H](O)[C@@H]1O (stereo partly shown) [(17), N-(2-hydroxycyclohexyl)valiolamine] | potent α-glucosidase-inhibitory action | – |
| OC[C@@]1(O)C[C@H](NCc2ccc(Br)cc2)[C@H](O)[C@@H](O)[C@@H]1O [(6), N-(4-bromobenzyl)valiolamine] | potent α-glucosidase-inhibitory action | – |
| OCC(CO)N[C@H]1C[C@](O)(CO)[C@@H](O)[C@H](O)[C@H]1O [(13), N-(1,3-dihydroxy-2-propyl)valiolamine] | potent α-glucosidase-inhibitory action | – |
| CC(C)=CCC/C(C)=C/CN[C@H]1C[C@](O)(CO)[C@@H](O)[C@H](O)[C@H]1O [(12), N-geranylvaliolamine] | potent α-glucosidase-inhibitory action | – |
| OC[C@@]1(O)C[C@H](NCC=Cc2ccccc2)[C@H](O)[C@@H](O)[C@@H]1O [(2), N-(3-phenylallyl)valiolamine] | potent α-glucosidase-inhibitory action | – |
| COc1ccccc1C(O)CN[C@H]1C[C@](O)(CO)[C@@H](O)[C@H](O)[C@H]1O (stereo partly drawn) [(9), N-(β-hydroxy-2-methoxyphenethyl)valiolamine] | potent α-glucosidase-inhibitory action | – |
| N[C@H]1C[C@H](CO)[C@@H](N[C@H]2C[C@](O)(CO)[C@@H](O)[C@H](O)[C@H]2O)[C@H](O)[C@H]1O [(22), [(1S,2S)-(2,4,5(OH)/3,5)-2,3,4,5-tetrahydroxy-5-(hydroxymethyl)cyclohexyl][(1R,2S)-(2,6/3,4)-4-amino-2,3-dihydroxy-6-(hydroxymethyl)cyclohexyl]-amine] | potent α-glucosidase-inhibitory action | – |
| OC[C@@]1(O)C[C@H](NC2CCCCC2)[C@H](O)[C@@H](O)[C@@H]1O [(16), N-cyclohexylvaliolamine] | potent α-glucosidase-inhibitory action | – |
| OC[C@@]1(O)C[C@H](NC[C@@H](O)c2ccccc2)[C@H](O)[C@@H](O)[C@@H]1O [(8), N-[(S)-β-hydroxyphenethyl]valiolamine] | potent α-glucosidase-inhibitory action | – |
| Methyl 4-[(1S,2S)-(2,4,5(OH)/3,5)-2,3,4,5-deoxy-α-D-glucopyranoside [(21)] | potent α-glucosidase-inhibitory action | – |
| CO[C@H]1O[C@H](C)[C@@H](N[C@H]2C[C@](O)(CO)[C@@H](O)[C@H](O)[C@H]2O)[C@H](O)[C@H]1O [(20), Methyl 4-[(1S,2S)-(2,4,5(OH)/3,5)-2,3,4,5-tetrahydroxy-5-(hydroxymethyl)cyclohexyl]amino-4,6-dideoxy-α-D-glucopyranoside] | potent α-glucosidase-inhibitory action | – |
| OCC(N[C@H]1C[C@](O)(CO)[C@@H](O)[C@H](O)[C@H]1O)C(O)c1ccccc1 (stereo partly shown) [(14), N-(1,3-dihydroxy-1-phenyl-2-propyl)valiolamine] | potent α-glucosidase-inhibitory action | – |
| OC[C@@]1(O)C[C@H](NCc2cccs2)[C@H](O)[C@@H](O)[C@@H]1O [(4), N-thenylvaliolamine] | potent α-glucosidase-inhibitory action | – |
| OC[C@@]1(O)C[C@H](NCC2CCCCC2)[C@H](O)[C@@H](O)[C@@H]1O [(11), N-(cyclohexylmethyl)valiolamine] | potent α-glucosidase-inhibitory action | – |
